Assays:
Assay in all cases: Kinase Hotspot radiolabel assay
Type in all cases: biochemical
Conditions in all cases: read-out: % Residual Activity
LKB1 = target: T1, LKB1 (Homo sapiens, UniProt Q15831)
T1 construct: purchased Reaction Biology Corporation (Kinase HotSpot)
Procedure, shortened: (§1)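 Data come from a 369-member kinase selectivity screen run as a Hotspot radiolabel assay. Compound concentration was 1 µM, and Ki was determined wherever inhibition topped 90%.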

IR = target: T2, IR (Homo sapiens, UniProt P06213)
T2 construct: purchased Reaction Biology Corporation (Kinase HotSpot)
Procedure, shortened: as §1

MRCKb/CDC42BPB = target: T3, MRCKb/CDC42BPB (Homo sapiens, UniProt Q9Y5S2)
T3 construct: purchased Reaction Biology Corporation (Kinase HotSpot)
T3 sequence (Q9Y5S2 whole entry): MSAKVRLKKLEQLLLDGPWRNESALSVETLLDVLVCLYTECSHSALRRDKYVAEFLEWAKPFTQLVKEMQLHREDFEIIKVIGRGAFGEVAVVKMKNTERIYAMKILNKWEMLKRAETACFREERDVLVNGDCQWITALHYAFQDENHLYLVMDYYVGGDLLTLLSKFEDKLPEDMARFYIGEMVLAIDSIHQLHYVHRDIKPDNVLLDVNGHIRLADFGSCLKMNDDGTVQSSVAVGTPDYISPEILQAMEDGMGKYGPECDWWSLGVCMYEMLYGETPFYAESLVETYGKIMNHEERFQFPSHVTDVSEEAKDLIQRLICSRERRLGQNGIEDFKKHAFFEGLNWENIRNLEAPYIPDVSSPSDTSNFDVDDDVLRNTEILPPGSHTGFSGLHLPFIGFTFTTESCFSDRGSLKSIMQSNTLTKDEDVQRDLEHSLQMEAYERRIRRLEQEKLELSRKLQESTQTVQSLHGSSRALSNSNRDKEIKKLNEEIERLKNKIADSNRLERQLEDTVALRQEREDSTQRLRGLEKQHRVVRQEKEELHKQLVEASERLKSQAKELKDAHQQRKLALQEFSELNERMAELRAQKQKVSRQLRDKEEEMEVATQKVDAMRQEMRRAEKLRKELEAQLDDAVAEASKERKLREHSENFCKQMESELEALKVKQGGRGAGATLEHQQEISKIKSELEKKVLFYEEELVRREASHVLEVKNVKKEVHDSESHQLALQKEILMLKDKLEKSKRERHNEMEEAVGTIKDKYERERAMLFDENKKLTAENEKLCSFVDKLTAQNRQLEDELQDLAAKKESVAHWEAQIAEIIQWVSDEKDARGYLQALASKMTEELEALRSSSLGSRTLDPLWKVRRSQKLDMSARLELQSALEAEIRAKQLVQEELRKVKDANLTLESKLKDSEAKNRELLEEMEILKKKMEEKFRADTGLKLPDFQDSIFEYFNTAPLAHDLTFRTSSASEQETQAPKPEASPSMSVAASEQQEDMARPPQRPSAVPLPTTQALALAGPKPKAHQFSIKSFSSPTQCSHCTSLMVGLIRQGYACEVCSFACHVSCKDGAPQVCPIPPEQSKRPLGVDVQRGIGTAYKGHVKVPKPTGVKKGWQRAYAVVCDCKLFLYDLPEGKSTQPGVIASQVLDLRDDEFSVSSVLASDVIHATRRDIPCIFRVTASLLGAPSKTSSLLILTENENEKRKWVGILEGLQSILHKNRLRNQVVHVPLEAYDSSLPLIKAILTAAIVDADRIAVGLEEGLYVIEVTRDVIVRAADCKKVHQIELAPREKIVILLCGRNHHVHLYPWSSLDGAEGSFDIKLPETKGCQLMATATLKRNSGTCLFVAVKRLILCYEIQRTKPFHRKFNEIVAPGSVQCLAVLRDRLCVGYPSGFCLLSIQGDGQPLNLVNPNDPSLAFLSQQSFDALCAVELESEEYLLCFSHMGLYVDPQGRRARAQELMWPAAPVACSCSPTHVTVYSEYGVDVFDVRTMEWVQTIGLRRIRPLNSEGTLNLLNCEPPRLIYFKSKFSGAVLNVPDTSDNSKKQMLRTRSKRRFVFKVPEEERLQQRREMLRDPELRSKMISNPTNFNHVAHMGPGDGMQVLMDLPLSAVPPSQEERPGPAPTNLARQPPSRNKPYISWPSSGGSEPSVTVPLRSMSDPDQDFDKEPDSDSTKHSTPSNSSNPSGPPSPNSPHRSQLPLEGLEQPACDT
Procedure, shortened: as §1

ERK1 = target: T4, ERK1 (Homo sapiens, UniProt P27361)
T4 construct: purchased Reaction Biology Corporation (Kinase HotSpot)
T4 sequence (P27361 whole entry): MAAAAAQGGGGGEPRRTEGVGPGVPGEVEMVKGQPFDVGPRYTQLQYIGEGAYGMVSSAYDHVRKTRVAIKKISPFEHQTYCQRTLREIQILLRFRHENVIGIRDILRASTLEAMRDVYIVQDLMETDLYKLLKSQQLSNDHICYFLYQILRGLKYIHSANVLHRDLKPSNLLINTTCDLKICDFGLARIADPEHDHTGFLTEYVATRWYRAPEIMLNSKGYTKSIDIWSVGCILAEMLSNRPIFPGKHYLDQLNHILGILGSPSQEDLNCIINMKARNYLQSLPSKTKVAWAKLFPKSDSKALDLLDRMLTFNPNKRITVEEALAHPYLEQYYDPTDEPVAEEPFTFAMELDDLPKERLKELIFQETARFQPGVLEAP
Procedure, shortened: as §1

CDK9/cyclin T2 = target: T5, CDK9/cyclin T2 (Homo sapiens, UniProt P50750)
T5 construct: purchased Reaction Biology Corporation (Kinase HotSpot)
T5 sequence (P50750 whole entry): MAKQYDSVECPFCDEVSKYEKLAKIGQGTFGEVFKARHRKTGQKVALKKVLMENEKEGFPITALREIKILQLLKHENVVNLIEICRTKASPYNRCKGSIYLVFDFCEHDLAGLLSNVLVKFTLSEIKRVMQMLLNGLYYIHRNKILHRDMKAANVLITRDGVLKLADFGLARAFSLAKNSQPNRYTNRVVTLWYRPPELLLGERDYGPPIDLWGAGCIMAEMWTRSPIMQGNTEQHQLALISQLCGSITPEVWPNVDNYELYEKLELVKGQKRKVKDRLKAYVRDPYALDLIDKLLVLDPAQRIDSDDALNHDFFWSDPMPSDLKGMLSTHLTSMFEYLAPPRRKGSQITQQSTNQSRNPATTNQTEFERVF
T5 sequence (O60583 whole entry partner): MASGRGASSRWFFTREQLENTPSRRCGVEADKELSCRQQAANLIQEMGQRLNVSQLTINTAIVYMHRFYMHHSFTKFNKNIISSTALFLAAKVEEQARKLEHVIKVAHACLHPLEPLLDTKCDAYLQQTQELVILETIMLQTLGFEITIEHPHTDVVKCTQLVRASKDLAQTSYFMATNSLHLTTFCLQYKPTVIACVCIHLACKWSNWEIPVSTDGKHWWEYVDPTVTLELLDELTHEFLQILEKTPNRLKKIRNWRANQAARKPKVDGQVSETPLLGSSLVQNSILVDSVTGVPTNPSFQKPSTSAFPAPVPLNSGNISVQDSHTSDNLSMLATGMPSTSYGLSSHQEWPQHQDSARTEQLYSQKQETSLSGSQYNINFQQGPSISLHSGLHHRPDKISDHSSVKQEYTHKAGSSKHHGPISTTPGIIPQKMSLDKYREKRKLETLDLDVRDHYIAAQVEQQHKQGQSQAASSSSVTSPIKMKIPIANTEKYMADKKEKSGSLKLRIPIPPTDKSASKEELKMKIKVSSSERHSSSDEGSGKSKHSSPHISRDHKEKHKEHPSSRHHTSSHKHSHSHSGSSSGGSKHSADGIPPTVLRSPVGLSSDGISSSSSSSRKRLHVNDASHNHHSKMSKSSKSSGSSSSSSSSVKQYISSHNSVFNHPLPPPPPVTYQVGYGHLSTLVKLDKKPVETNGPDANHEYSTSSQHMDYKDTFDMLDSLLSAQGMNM
Procedure, shortened: as §1

JNK1 = target: T6, JNK1 (Homo sapiens, UniProt P45983)
T6 construct: purchased Reaction Biology Corporation (Kinase HotSpot)
T6 sequence (P45983 whole entry): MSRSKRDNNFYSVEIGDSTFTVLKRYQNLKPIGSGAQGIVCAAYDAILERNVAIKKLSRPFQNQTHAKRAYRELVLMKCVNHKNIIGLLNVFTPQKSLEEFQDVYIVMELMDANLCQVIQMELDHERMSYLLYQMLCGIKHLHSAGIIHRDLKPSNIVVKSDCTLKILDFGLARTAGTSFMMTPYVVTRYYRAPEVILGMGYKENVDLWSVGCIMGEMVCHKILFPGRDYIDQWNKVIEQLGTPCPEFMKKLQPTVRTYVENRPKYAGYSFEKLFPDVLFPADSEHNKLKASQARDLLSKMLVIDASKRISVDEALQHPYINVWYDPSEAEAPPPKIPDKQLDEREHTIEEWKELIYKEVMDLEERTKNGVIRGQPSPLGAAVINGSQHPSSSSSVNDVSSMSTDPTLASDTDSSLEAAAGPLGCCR
Procedure, shortened: as §1

MEKK3 = target: T7, MEKK3 (Homo sapiens, UniProt Q99759)
T7 construct: purchased Reaction Biology Corporation (Kinase HotSpot)
T7 sequence (Q99759 whole entry): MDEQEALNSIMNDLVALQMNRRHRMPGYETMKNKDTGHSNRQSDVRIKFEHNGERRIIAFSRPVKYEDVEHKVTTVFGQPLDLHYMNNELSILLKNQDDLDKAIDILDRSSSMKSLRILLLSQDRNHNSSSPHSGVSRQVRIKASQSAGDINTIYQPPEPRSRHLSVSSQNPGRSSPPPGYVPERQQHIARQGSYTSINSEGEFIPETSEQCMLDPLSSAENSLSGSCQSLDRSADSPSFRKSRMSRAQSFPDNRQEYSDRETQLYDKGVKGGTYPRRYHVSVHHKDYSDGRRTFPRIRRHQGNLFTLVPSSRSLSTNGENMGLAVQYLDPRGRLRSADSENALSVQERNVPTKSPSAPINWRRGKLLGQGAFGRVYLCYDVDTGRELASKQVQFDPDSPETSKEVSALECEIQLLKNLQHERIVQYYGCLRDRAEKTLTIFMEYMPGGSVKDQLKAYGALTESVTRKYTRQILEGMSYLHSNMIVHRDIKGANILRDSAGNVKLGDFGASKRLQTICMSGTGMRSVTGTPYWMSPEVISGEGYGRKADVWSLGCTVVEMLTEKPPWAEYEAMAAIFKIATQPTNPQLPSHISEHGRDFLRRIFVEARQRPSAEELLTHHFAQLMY
Procedure, shortened: as §1

c-MER = target: T8, c-MER (Homo sapiens, UniProt Q12866)
T8 construct: purchased Reaction Biology Corporation (Kinase HotSpot)
Procedure, shortened: as §1

DDR2 = target: T9, DDR2 (Homo sapiens, UniProt Q16832)
T9 construct: purchased Reaction Biology Corporation (Kinase HotSpot)
Procedure, shortened: as §1

FES/FPS = target: T10, FES/FPS (Homo sapiens, UniProt P07332)
T10 construct: purchased Reaction Biology Corporation (Kinase HotSpot)
Procedure, shortened: as §1

CDK2/cyclin A = target: T11, CDK2/cyclin A (Homo sapiens, UniProt P24941)
T11 construct: purchased Reaction Biology Corporation (Kinase HotSpot)
Procedure, shortened: as §1

ZAK/MLTK = target: T12, ZAK/MLTK (Homo sapiens, UniProt Q9NYL2)
T12 construct: purchased Reaction Biology Corporation (Kinase HotSpot)
Procedure, shortened: as §1

RSK1 = target: T13, RSK1 (Homo sapiens, UniProt Q15418)
T13 construct: purchased Reaction Biology Corporation (Kinase HotSpot)
Procedure, shortened: as §1

CAMKK2 = target: T14, CAMKK2 (Homo sapiens, UniProt Q96RR4)
T14 construct: purchased Reaction Biology Corporation (Kinase HotSpot)
Procedure, shortened: as §1

PAK3 = target: T15, PAK3 (Homo sapiens, UniProt O75914)
T15 construct: purchased Reaction Biology Corporation (Kinase HotSpot)
Procedure, shortened: as §1

Aurora C = target: T16, Aurora C (Homo sapiens, UniProt Q9UQB9)
T16 construct: purchased Reaction Biology Corporation (Kinase HotSpot)
Procedure, shortened: as §1

MLK2/MAP3K10 = target: T17, MLK2/MAP3K10 (Homo sapiens, UniProt Q02779)
T17 construct: purchased Reaction Biology Corporation (Kinase HotSpot)
Procedure, shortened: as §1

PDGFRa = target: T18, PDGFRa (Homo sapiens, UniProt P16234)
T18 construct: purchased Reaction Biology Corporation (Kinase HotSpot)
Procedure, shortened: as §1

STK22D/TSSK1 = target: T19, STK22D/TSSK1 (Homo sapiens, UniProt Q9BXA7)
T19 construct: purchased Reaction Biology Corporation (Kinase HotSpot)
Procedure, shortened: as §1

EPHA7 = target: T20, EPHA7 (Homo sapiens, UniProt Q15375)
T20 construct: purchased Reaction Biology Corporation (Kinase HotSpot)
Procedure, shortened: as §1

CDK16/cyclin Y (PCTAIRE) = target: T21, CDK16/cyclin Y (PCTAIRE) (Homo sapiens, UniProt Q00536)
T21 construct: purchased Reaction Biology Corporation (Kinase HotSpot)
Procedure, shortened: as §1

MST2/STK3 = target: T22, MST2/STK3 (Homo sapiens, UniProt Q13188)
T22 construct: purchased Reaction Biology Corporation (Kinase HotSpot)
Procedure, shortened: as §1

MARK3 = target: T23, MARK3 (Homo sapiens, UniProt P27448)
T23 construct: purchased Reaction Biology Corporation (Kinase HotSpot)
Procedure, shortened: as §1

RIPK3 = target: T24, RIPK3 (Homo sapiens, UniProt Q9Y572)
T24 construct: purchased Reaction Biology Corporation (Kinase HotSpot)
Procedure, shortened: as §1

P38a/MAPK14 = target: T25, P38a/MAPK14 (Homo sapiens, UniProt Q16539)
T25 construct: purchased Reaction Biology Corporation (Kinase HotSpot)
Procedure, shortened: as §1

TTBK2 = target: T26, TTBK2 (Homo sapiens, UniProt Q6IQ55)
T26 construct: purchased Reaction Biology Corporation (Kinase HotSpot)
Procedure, shortened: as §1

RSK4 = target: T27, RSK4 (Homo sapiens, UniProt Q9UK32)
T27 construct: purchased Reaction Biology Corporation (Kinase HotSpot)
Procedure, shortened: as §1

FGFR1 = target: T28, FGFR1 (Homo sapiens, UniProt P11362)
T28 construct: purchased Reaction Biology Corporation (Kinase HotSpot)
T28 sequence (P11362 22-822): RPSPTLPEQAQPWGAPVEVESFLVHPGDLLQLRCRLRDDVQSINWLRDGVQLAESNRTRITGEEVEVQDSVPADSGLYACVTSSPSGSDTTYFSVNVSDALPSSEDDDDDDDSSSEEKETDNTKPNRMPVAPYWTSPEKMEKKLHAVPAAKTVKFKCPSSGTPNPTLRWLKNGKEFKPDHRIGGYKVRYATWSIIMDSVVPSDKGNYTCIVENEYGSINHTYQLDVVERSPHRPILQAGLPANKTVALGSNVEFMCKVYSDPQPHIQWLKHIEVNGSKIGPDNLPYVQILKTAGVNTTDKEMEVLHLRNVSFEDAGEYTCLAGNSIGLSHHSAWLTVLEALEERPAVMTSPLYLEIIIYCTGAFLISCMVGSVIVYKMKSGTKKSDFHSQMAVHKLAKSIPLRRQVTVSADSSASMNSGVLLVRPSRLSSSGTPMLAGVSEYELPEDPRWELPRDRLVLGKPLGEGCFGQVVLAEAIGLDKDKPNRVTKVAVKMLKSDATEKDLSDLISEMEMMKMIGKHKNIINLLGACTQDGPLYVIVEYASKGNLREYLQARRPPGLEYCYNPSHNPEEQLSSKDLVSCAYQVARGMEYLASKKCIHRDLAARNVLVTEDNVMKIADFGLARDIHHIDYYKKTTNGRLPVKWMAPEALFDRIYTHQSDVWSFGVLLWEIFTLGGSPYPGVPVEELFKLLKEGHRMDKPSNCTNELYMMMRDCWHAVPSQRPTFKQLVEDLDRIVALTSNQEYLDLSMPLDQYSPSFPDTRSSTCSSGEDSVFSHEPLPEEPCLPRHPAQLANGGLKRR
Procedure, shortened: as §1

PDK1/PDPK1 = target: T29, PDK1/PDPK1 (Homo sapiens, UniProt O15530)
T29 construct: purchased Reaction Biology Corporation (Kinase HotSpot)
Procedure, shortened: as §1

CDK18/cyclin Y (PCTK3) = target: T30, CDK18/cyclin Y (PCTK3) (Homo sapiens, UniProt Q07002)
T30 construct: purchased Reaction Biology Corporation (Kinase HotSpot)
Procedure, shortened: as §1

Cc1cnc(N[C@H]2CC[C@H](N)CC2)nc1-c1cnc2ccc(-c3ccccc3)cn12 [CDDD11-8]
remaining activity at 1 µM (LKB1): 102% | remaining activity at 1 µM (IR): 101% | remaining activity at 1 µM (MRCKb/CDC42BPB): 79.3% | remaining activity at 1 µM (ERK1): 97.3% | remaining activity at 1 µM (CDK9/cyclin T2): 2.35% | remaining activity at 1 µM (JNK1): 105% | remaining activity at 1 µM (MEKK3): 109% | remaining activity at 1 µM (c-MER): 52.3% | remaining activity at 1 µM (DDR2): 73.5% | remaining activity at 1 µM (FES/FPS): 86.2% | remaining activity at 1 µM (CDK2/cyclin A): 55% | remaining activity at 1 µM (ZAK/MLTK): 83.3% | remaining activity at 1 µM (RSK1): 56.9% | remaining activity at 1 µM (CAMKK2): 47.7% | remaining activity at 1 µM (PAK3): 87.5% | remaining activity at 1 µM (Aurora C): 82.1% | remaining activity at 1 µM (MLK2/MAP3K10): 76.5% | remaining activity at 1 µM (PDGFRa): 49.3% | remaining activity at 1 µM (STK22D/TSSK1): 93.2% | remaining activity at 1 µM (EPHA7): 105% | remaining activity at 1 µM (CDK16/cyclin Y (PCTAIRE)): 57.4% | remaining activity at 1 µM (MST2/STK3): 15% | remaining activity at 1 µM (MARK3): 37% | remaining activity at 1 µM (RIPK3): 97.5% | remaining activity at 1 µM (P38a/MAPK14): 106% | remaining activity at 1 µM (TTBK2): 93% | remaining activity at 1 µM (RSK4): 43.4% | remaining activity at 1 µM (FGFR1): 96.8% | remaining activity at 1 µM (PDK1/PDPK1): 105% | remaining activity at 1 µM (CDK18/cyclin Y (PCTK3)): 100%

From paper PMC8909834, “An Orally Bioavailable and Highly Efficacious Inhibitor of CDK9/FLT3 for the Treatment of Acute Myeloid Leukemia” (Cancers, 2022)
